Tests used:
[1] = tested on: Human immunodeficiency virus 1; experiment: In vitro inhibition of spread of viral infection using 4X mutant virus; assay type: functional; details: read-out: CIC95
MT4 = experiment: Concentration required to inhibit the spread of viral infection in MT-4 human T-lymphoid cells infected by the NL4-3 virus; assay type: functional; details: read-out: CIC95
[2] = molecular target: T1, Human immunodeficiency virus type 1 protease (Human immunodeficiency virus 1, UniProt Q72874); experiment: Inhibitory concentration against wild-type HIV-1 protease
[3] = Maximum concentration in dogs administered perorally (5 mg/kg) and intravenously (2 mg/kg); assay type: ADME, organism-based, Canis lupus familiaris; details: dog, in vivo, po
[4] = Intrinsic clearance in human liver microsomes; assay type: ADME, Microsome
[5] = Plasma clearance in dogs administered perorally (5 mg/kg) and intravenously (2 mg/kg); assay type: ADME, organism-based, Canis lupus familiaris; details: dog, iv, read-out: Clp
[6] = tested on: Human immunodeficiency virus 1; experiment: Potency against PI-resistant viral isolate construct HIV K-60C; assay type: functional; details: read-out: CIC95
[7] = tested on: Human immunodeficiency virus 1; experiment: Potency against PI-resistant viral isolate construct HIV Q-60C; assay type: functional; details: read-out: CIC95
[8] = tested on: Human immunodeficiency virus 1; experiment: Potency against PI-resistant virus HIV 4X; assay type: functional; details: read-out: CIC95
[9] = tested on: Human immunodeficiency virus 1; experiment: Potency against PI-resistant virus HIV NL-4; assay type: functional; details: read-out: CIC95
Cytochrome P450 2D6 = Cytochrome P450 2D6 (Homo sapiens, UniProt P10635); experiment: Inhibition of cytochrome P450 2D6; assay type: ADME
Chain of Cytochrome P450 2D6 (P10635 whole entry): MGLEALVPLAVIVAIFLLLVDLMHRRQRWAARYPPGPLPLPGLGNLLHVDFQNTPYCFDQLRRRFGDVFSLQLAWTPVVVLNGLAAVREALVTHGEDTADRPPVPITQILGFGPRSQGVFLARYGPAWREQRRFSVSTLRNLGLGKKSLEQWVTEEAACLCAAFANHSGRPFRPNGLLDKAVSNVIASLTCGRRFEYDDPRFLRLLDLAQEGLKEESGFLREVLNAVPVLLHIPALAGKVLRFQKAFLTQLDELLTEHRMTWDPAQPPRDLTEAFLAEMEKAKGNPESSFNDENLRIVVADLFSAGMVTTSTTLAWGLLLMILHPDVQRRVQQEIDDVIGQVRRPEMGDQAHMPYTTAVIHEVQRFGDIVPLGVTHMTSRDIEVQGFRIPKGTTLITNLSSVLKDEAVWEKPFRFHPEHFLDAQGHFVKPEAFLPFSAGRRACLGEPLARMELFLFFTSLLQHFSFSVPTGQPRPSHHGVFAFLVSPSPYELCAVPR

Cytochrome P450 3A4 = Cytochrome P450 3A4 (Homo sapiens, UniProt P08684); experiment: Inhibition of cytochrome P450 3A4; assay type: ADME
Chain of Cytochrome P450 3A4 (P08684 whole entry): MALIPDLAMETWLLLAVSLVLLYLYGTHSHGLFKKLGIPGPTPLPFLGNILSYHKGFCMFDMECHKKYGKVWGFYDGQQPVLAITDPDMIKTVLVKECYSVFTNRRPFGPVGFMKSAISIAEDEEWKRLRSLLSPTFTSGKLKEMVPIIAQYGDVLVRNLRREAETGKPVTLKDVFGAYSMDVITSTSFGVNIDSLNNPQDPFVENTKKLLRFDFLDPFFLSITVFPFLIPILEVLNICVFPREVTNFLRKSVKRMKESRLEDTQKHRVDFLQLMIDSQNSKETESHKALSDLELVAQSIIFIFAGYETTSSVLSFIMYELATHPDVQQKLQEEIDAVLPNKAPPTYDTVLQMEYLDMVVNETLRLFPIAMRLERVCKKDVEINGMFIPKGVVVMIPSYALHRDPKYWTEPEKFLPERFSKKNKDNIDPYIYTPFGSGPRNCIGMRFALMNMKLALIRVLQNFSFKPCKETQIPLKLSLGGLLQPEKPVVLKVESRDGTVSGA

[10] = tested on: Human immunodeficiency virus 1; experiment: Potency against PI-resistant viral isolate construct HIV V-18C; assay type: functional; details: read-out: CIC95
[11] = molecular target: T1, Human immunodeficiency virus type 1 protease; experiment: Inhibitory concentration required to inhibit cleavage of a substrate by thewild-type HIV-1 protease enzyme
[12] = Bioavailability in dog (dose 5 mg/kg p.o. and 2 mg/kg i.v.); assay type: ADME, organism-based, Canis lupus familiaris; details: in vivo, po
[13] = Half life in dogs administered perorally (5 mg/kg) and intravenously (2 mg/kg); assay type: ADME, organism-based, Canis lupus familiaris; details: dog, in vivo
[14] = Area under curve in dogs administered perorally (5 mg/kg) and intravenously (2 mg/kg); assay type: ADME, organism-based, Canis lupus familiaris; details: dog, in vivo

Row | SMILES | IC95 [1] [nM] | IC95 (MT4) [nM] | IC50 [2] [nM] | further results
1 | CC(C)CNC(=O)[C@@H]1CN(C(C)(C)c2cc3cnccc3o2)CCN1C[C@@H](O)C[C@@H](Cc1ccccc1)C(=O)N[C@H]1c2ccccc2OC[C@H]1O | 125 | 15 | 0.4 | –
2 | CC(C)(C)CNC(=O)[C@@H]1CN(C(C)(C)c2cc3cnccc3o2)CCN1C[C@@H](O)C[C@@H](Cc1ccccc1)C(=O)N[C@H]1c2ccccc2OC[C@H]1O | 500 | 31 | 1.16 | –
3 | CCNC(=O)[C@@H]1CN(C(C)(C)c2cc3cnccc3o2)CCN1C[C@@H](O)C[C@@H](Cc1ccccc1)C(=O)N[C@H]1c2ccccc2OC[C@H]1O | 62 | 31 | 0.61 | –
4 | CC(C)(c1cc2cnccc2o1)N1CCN(C[C@@H](O)C[C@@H](Cc2ccccc2)C(=O)N[C@H]2c3ccccc3OC[C@H]2O)[C@H](C(=O)NCC(F)(F)C(F)(F)F)C1 | 62 | ≤ 8 | 0.14 | –
5 | CC(C)(C)NC(=O)[C@@H]1CN(C(C)(C)c2cc3cnccc3o2)CCN1C[C@@H](O)C[C@@H](Cc1ccccc1)C(=O)N[C@H]1c2ccccc2OC[C@H]1O | 31 | ≤ 8 | 0.08 | Cmax [3]: 8.8 µM; CLint scaled [4]: 34 mL/min/kg; clearance [5]: 14.2 mL/min/kg; IC95 [6]: 500 nM; IC95 [7]: 125 nM; IC95 [8]: 16 nM; IC95 [9]: 9.2 nM; IC50 (Cytochrome P450 2D6): 2430 nM; IC50 (Cytochrome P450 3A4): 310 nM; IC95 [10]: 125 nM
6 | CC(C)(c1cc2cnccc2o1)N1CCN(C[C@@H](O)C[C@@H](Cc2ccccc2)C(=O)N[C@H]2c3ccccc3OC[C@H]2O)[C@H](C(=O)NCc2ccccc2)C1 | 250 | 125 | 2.19 | –
7 | CC(C)(c1cc2cnccc2o1)N1CCN(C[C@@H](O)C[C@@H](Cc2ccccc2)C(=O)N[C@H]2c3ccccc3OC[C@H]2O)[C@H](C(=O)NCC2CC2)C1 | 125 | 46 | 0.5 | –
8 | CC(C)(C)NC(=O)[C@@H]1CN(Cc2cccnc2)CCN1C[C@@H](O)C[C@@H](Cc1ccccc1)C(=O)N[C@H]1c2ccccc2C[C@H]1O | – | – | – | IC95 [6]: > 1000 nM; IC95 [7]: > 1000 nM; IC95 [8]: 400 nM; IC95 [9]: 50 nM; IC95 [10]: > 1000 nM
9 | CC(C)(c1cc2cnccc2o1)N1CCN(C[C@@H](O)C[C@@H](Cc2ccccc2)C(=O)N[C@H]2c3ccccc3OC[C@H]2O)[C@H](C(=O)NCc2cccs2)C1 | 125 | 94 | – | IC50 [11]: 0.65 nM
10 | CC(C)(c1cc2cnccc2o1)N1CCN(C[C@@H](O)C[C@@H](Cc2ccccc2)C(=O)N[C@H]2c3ccccc3OC[C@H]2O)[C@H](C(=O)NCC(F)(F)F)C1 | ≤ 8 | ≤ 8 | 0.07 | bioavailability [12]: 65%; half-life [13]: 52 min; Cmax [3]: 17 µM; AUC [14]: 18.8 µM·h; CLint scaled [4]: 22 mL/min/kg; clearance [5]: 4.01 mL/min/kg; IC95 [6]: 250 nM; IC95 [7]: 62 nM; IC95 [8]: ≤ 8 nM; IC95 [9]: ≤ 8 nM; IC50 (Cytochrome P450 2D6): 520 nM; IC50 (Cytochrome P450 3A4): 30 nM; IC95 [10]: 62 nM
11 | O=C(N[C@H]1c2ccccc2C[C@H]1O)[C@H](Cc1ccccc1)C[C@H](O)CN1CCN(Cc2cccnc2)C[C@H]1C(=O)NCC(F)(F)F | – | – | – | IC95 [6]: > 1000 nM; IC95 [7]: 62 nM; IC95 [8]: 125 nM; IC95 [9]: 62 nM; IC95 [10]: 500 nM
12 | CC(C)(c1cc2cnccc2o1)N1CCN(C[C@@H](O)C[C@@H](Cc2ccccc2)C(=O)N[C@H]2c3ccccc3OC[C@H]2O)[C@H](C(=O)NC2CC2)C1 | 250 | 62 | 0.6 | –
13 | CC(C)(c1cc2cnccc2o1)N1CCN(C[C@@H](O)C[C@@H](Cc2ccccc2)C(=O)N[C@H]2c3ccccc3OC[C@H]2O)[C@H](C(=O)NCCC(F)(F)F)C1 | 500 | 62 | 1.6 | –
14 | CC(C)(c1cc2cnccc2o1)N1CCN(C[C@@H](O)C[C@@H](Cc2ccccc2)C(=O)N[C@H]2c3ccccc3OC[C@H]2O)[C@H](C(=O)NC2CCCC2)C1 | 31 | ≤ 8 | 0.37 | –
15 | CC(C)(c1cc2cnccc2o1)N1CCN(C[C@@H](O)C[C@@H](Cc2ccccc2)C(=O)N[C@H]2c3ccccc3OC[C@H]2O)[C@H](C(=O)Nc2ccccc2)C1 | > 1000 | 250 | 13.8 | –
